{
  "source": "patent US20130338114A1",
  "about": "“COMPOSITIONS FOR INCREASING STRENGTH, MUSCLE MASS, AND LEAN BODY MASS” (Chemi Nutra, priority 2012, published 2013)",
  "key": {"[1]": {"experiment": "LC/MS/MS analysis of LPA and PA in human plasma after oral PA (Example 8)", "conditions": "in vivo", "description": "Lyso-phosphatidic acid (LPA) and phosphatidic acid (PA) from human plasma includes a physical distribution of molecules varying in their fatty acids esterified to the sn-1 and sn-2 positions of glycerol-3-phosphate. The differences in polarity among the fatty acid substituted structures provide a means to resolve individual species under reversed phase chromatographic conditions. This analysis coupled with selective mass spectrometric detection based on molecular weight and distinctive fragmentation for LPA and PA compounds provided the basis for quantitation in the samples described herein. Total LPA and PA content are measured as the sum of the individual species measured.\nHuman plasma of a subject was analyzed after administration of lyso-phosphatidic acid and phosphatidic acid. One subject consumed 2 g of PA in form of Mediator® (Chemi Nutra). The data from the study provided the composition and concentration of PA and lyso-PA in human blood plasma as a baseline value, and changes in PA and lyso-PA concentrations after 30 minutes, 1 hour, 2 hours, 3 hours and 7 hours. It was determined that PA administration results in increases in lyso-PA and PA concentrations in human blood plasma.\nAn ultra performance liquid chromatograph with triple quadrupole mass spectrometry (LC/MS/MS) method was utilized to measure the content of LPA and PA molecular species in human plasma. A Waters Acquity™ Ultra-performance liquid chromatography system coupled with an AB Sciex 5500 tandem quadrupole mass spectrometer was the instrumentation platform.\nColumn: Agilent, Eclipse™ XDB-C8 4.6×150 mm, 1.8 μm, sn. USHAN01857, pn. 927975-906. Flow=1 mL/minute at 40° C. Mobile phases: A=70:28.5:1.5 (/v) methanol:water:acetic acid with 0.08% TEA/v;\nThe identified molecular species were detected using a multiple reaction monitoring (MRM) technique for the -ve mode exact mass of [M-H]^− and the corresponding fragment 153 amu. […]\nThe content of each molecular species was calculated from the internal standards present in each sample extract. […]"}, "[2]": {"test_system": "known non-responder to creatine supplementation", "experiment": "Creatine non-responder Subject A (RJ): body weight and total strength, two-week strength training program", "type": "in vivo, human", "conditions": "subject one", "protocol": "patient one, 198 cm tall, a known non-responder to creatine supplementation, followed a two-week strength training program while testing whether supplementation with PA-enriched-phospholipid improves creatine response. Total starting body weight and strength were measured on day one, followed by the training program, consisting of concentric and eccentric isotonic lifting exercises that worked the upper and lower body muscle groups. Either free weights or weight machines were used once or twice weekly. Strength training was performed three times per week with at least one day of rest between sessions, which alternated between lower and upper body exercises. During the two-week period, a total of six training sessions (three upper and three lower) were performed. Each exercise included two sets of ten repetitions at 30% and 60% 1RM, followed by two sets of 3 to 5 repetitions at 90% 1RM. The lower body exercise included seven different exercises: seated leg press, leg curls, standing calf raises, leg extensions, inclined leg lift, inverted situps (back extension) and 45° inclined situps. The upper body exercise consisted of seven different exercises: bench press, latissimus pulldown, triceps pulldown, inclined dumbbell curls, seated preacher curls, seated rows, and CyBec Pec Fly. Total upper body weight and lower body weight lifted were calculated as the average weight lifted during the last three sets multiplied by the average repetition in each set. Total strength was determined as the combined lower and upper total weight lifted. Total body weight was determined after day 8 and day 15. Strength was measured on days 1 and 15. A four-week rest period followed the first two-week training program. The same program was repeated twice, the control was supplementation of creatine monohydrate (Creapure, Alzchem, Germany) 4 times 5 grams per day for five days of loading, followed by nine days of five grams creatine monohydrate. During the second program, creatine monohydrate was given as for the control program with the addition of PA-enriched phospholipid (Chemi Nutra, White Bear Lake, Minn.) which was about 50% PA."}, "[3]": {"test_system": "known non-responder to creatine supplementation", "experiment": "Creatine non-responder Subject B (MP): body weight and total strength, three-week strength training program", "type": "in vivo, human", "conditions": "subject two", "protocol": "patient two, 185 cm tall, also a known non-responder to creatine supplementation, followed a three-week strength training program while testing whether supplementation with PA-enriched-phospholipid improves creatine response. Total starting total body weight and strength were measured on day one, followed by the training program, consisting of concentric and eccentric isotonic lifting exercises that worked the upper and lower body muscle groups with either free weights or weight machines used once or twice weekly. Strength training was performed three times per week with at least one day of rest between sessions, which alternated between lower and upper body exercises. During the three-week period, a total of 10 training sessions (five upper body and five lower body) were performed. Each exercise included two sets of ten repetitions at 40% and 65% 1RM, followed by two sets of 3 to 5 repetitions at 90% 1RM.\nThe lower body exercise included seven different exercises: seated leg press, leg curls, standing calf raises, leg extension, inclined leg lift, inverted situps (back extension) and 45° inclined situps. The upper body exercise consisted of seven different exercises: bench press, latissimus pulldown, triceps pulldown, inclined dumbbell curls, seated preacher curls, seated rows, and CyBec Pec Fly. Total upper body and lower body weight lifted were calculated as the average weight lifted during the last three sets multiplied by the average repetition in each set. Total strength was determined as the combined lower and upper total weight lifted. […] Strength was measured on days 1 and 22.\nA four-week rest period followed the first three-week training program. The same program was repeated twice, the control was supplemented with creatine monohydrate (Creapure®, Alzchem, Germany), 5 grams per day of five grams creatine monohydrate for 21 days. During the second program, creatine monohydrate was given as for the control program with the addition of 1 gram per day PA-enriched phospholipid (Chemi Nutra, White Bear Lake, Minn.), which contained about 50% PA."}},
  "data": [
    {"smiles": "CCCCCCCCCCCCCCCC(=O)OCC(O)COP(=O)(O)O", "note": "(centres unmarked) [16:0 LPA]", "values": [
      {"measurement": "plasma concentration, Time 0 @10 AM", "setting": "[1]", "result": 51.33, "unit": "nM"}
    ]},
    {"smiles": "CN(CC(=O)O)C(=N)N", "note": "[Creatine Supplement, N-methyl-N-guanyl glycine]", "values": [
      {"measurement": "body weight, day 1", "setting": "[2]; day 1", "result": 88.8, "unit": "kg"},
      {"measurement": "increase in total strength (total weight lifted)", "setting": "[2]; day 1 to day 15", "result": 5, "unit": "%"},
      {"measurement": "body weight, day 8", "setting": "[2]; day 8", "result": 88.3, "unit": "kg"},
      {"measurement": "body weight, day 15", "setting": "[2]; day 15", "result": 88.0, "unit": "kg"},
      {"measurement": "body weight, day 1", "setting": "[3]; day 1", "result": 81.9, "unit": "kg"},
      {"measurement": "increase in total strength (total weight lifted)", "setting": "[3]; day 1 to day 22", "result": 5, "unit": "%"},
      {"measurement": "body weight, day 10", "setting": "[3]; day 10", "result": 81.5, "unit": "kg"},
      {"measurement": "body weight, day 22", "setting": "[3]; day 22", "result": 81.2, "unit": "kg"}
    ]},
    {"smiles": "CCCCCCCCCCCCCC(=O)OC[C@@H](O)COP(=O)(O)O", "note": "[14:0 LPA]", "values": [
      {"measurement": "plasma concentration, Time 0 @10 AM", "setting": "[1]", "result": 13.00, "unit": "nM"}
    ]},
    {"smiles": "CCCCCCCCCCCCCCCCCC(=O)OC[C@@H](O)COP(=O)(O)O", "note": "[18:0 LPA]", "values": [
      {"measurement": "plasma concentration, Time 0 @10 AM", "setting": "[1]", "result": 0.00, "unit": "nM"}
    ]}
  ]
}
